In patent US20260166045A1, “COMBINATION THERAPY COMPRISING GSPT1-DIRECTED MOLECULAR GLUE DEGRADERS AND PI3K/AKT/mTOR PATHWAY INHIBITORS” (Monte Rosa Therapeutics, Inc., priority 2022, published 2026):

Experiments:
Assay in all cases: CellTiter-Glo 2.0 cell viability, 7x7 combination dose response matrix, synergy scoring
Format in all cases: cell-based
[1] = tested on: CAL51 cell line
Text: (§1) A study was undertaken to determine whether the combination of a GSPT1-directed MGD and an inhibitor of the PI3K/AKT/mTOR pathway could be effective in killing cancer cells and whether certain combination could elicit a greater than additive effect on cell killing.
(§2) FIG. 1 is a flow diagram of the method used to assess cancer cell killing by a combination of a GSPT1-directed MGD and an inhibitor of the PI3K/AKT/mTOR pathway. Certain of the materials and equipment used in the studies are presented in Table 3 and the cell lines used are presented in Table 4.
(§3) All assays were run in triplicate. Each 384-well plate accommodated six 7×7 dose response matrices (FIG. 2). All compound handling was performed using an Echo 650 Series Acoustic Liquid Handler, which enables fully automated, precise, contact-free acoustic transfer in volumes as low as 2.5 nL.
(§4) The following protocol was used for cell plating: • 1. Warm media to room temperature or 37° C. • 2. Prepare complete phenol-free media by adding 10% FBS+1% Pen-Strep to RPMI 1640 Medium or DMEM. • 3. Aspirate media from T175 tissue culture flask and rinse with 10 ml PBS. • 4. Aspirate PBS and add 2 mL 0.25% trypsin. Incubate the flask at 37° C. for 5 min or until cells are detached. • 5. Add 10 mL complete media to the flask to neutralize the trypsin, then collect cells in a 50 mL conical tube. • 6. Centrifuge cells at 300 g for 5 min. Aspirate media and suspend cell pellet in fresh media. Use cell strainer to strain cells into a new 50 mL conical tube. • 7. […] Mix 100 uL cell suspension with 100 uL trypan blue (1:1) and pipette 20 μL of the mixture into each of 2 counting chambers on a slide. Insert slide. • b. Adjust focus and record the live cell count. At least 2 independent measurements should be taken. […] Cell viability should be greater than 90%. […] Dilute cell suspension to the desired concentration (20000 cells/mL) using complete phenol-free media. Prepare 10 mL cell suspension per plate+an extra 10 mL for priming the liquid handler. • 9. Dispense cells into 384-well plates using the liquid handler at 25 uL/well (500 cells/well). 3 plates should be prepared per compound plate to be treated. • 10. Cells should be dispensed into columns 1-23 only. Media only (no cells) should be dispensed into column 24. • 11. Allow plates to rest at RT for 30 minutes before transferring to the incubator. Incubate cells overnight at 37° C., 95% humidity, and 5% CO2.
(§5) Compound plates were prepared as follows using an Echo 650 Series Acoustic Liquid Handler. • 1. A compound plate containing 7-point dose responses of each compound to be treated is first prepared from stock compounds. • 2. The cell plates are treated with compounds according to the following maps, where the first compound is added across all six 7 by 7 dose response matrices, and its concentration varies by row (FIG. 2; top matrix), whereas the second compound varies for each dose response matrix, and its concentration varies by column (FIG. 2; bottom matrix). Each cell plate receives one Compound A and six different Compound Bs. • 3. To prepare a compound plate, 384-well PP plate with stock compounds (highest concentration) is prepared. Compounds are diluted 1:1000 in the cell plates, e.g. 10 mM on compound plate will be 10 uM on cell plate. A 384-well LDV plate with pre-determined volumes of DMSO is prepared. Echo is used to dilute stock compounds from PP plate into LDV plate to prepare 7-point dose responses.
(§6) Compounds were added to the cells and cell viability was measured after 72 hour incubation using CellTiter-Glo 2.0 Cell Viability Assay (Promega): • 1. For a compound addition, Echo is used to transfer 25 nL from the compound plate wells to the cell plates according to the plate maps shown in FIG. 2. Cell plates are treated in triplicate. Each well of the cell plate has 25 uL media (1:1000 dilution). Incubate cells post-treatment at 37° C., 95% humidity, and 5% CO2 for 72 hrs (step 106). • 2. […]

[2] = tested on: MDA-MB-157 cell line; settings: combined with M2698 41-10000 nM, first compound 0.41-100 nM
Text: as §1, §2, §3, §4, §5, §6

[3] = tested on: MCF7 cell line
Text: as §1, §2, §3, §4, §5, §6

[4] = tested on: MDA-MB-231 cell line; settings: MDA-MB-231; combined with M2698 41-10000 nM; first compound 0.41-100 nM
Text: as §1, §2, §3, §4, §5, §6

[5] = CAL51, combined with Alpelisib 41-10000 nM, first compound 0.41-33.33 nM
[6] = CAL51, combined with M2698 41-10000 nM, first compound 0.41-100 nM
[7] = MCF7, combined with Alpelisib 41-10000 nM, first compound 0.41-33.33 nM
[8] = MCF7, combined with M2698 41-10000 nM, first compound 0.41-100 nM

| SMILES | Mean Bliss synergy score [1, 5] | Mean Loewe synergy score [1, 5] | Mean Bliss synergy score [1, 6] | Mean Loewe synergy score [1, 6] | Mean Bliss synergy score [2] | Mean Loewe synergy score [2] | Mean Bliss synergy score [3, 7] | Mean Loewe synergy score [3, 7] | Mean Bliss synergy score [3, 8] | Mean Loewe synergy score [3, 8] | Mean Bliss synergy score [4] | Mean Loewe synergy score [4] | Mean Bliss synergy score ([1]; combined with M2698 (41 nM to 10 uM), CAL51 cell line, mean across dose response matrix, 72 hrs) | Mean Bliss synergy score ([3]; combined with Alpelisib (41 nM to 10 uM), MCF7 cell line, mean across dose response matrix, 72 hrs) |
| --- | --- | --- | --- | --- | --- | --- | --- | --- | --- | --- | --- | --- | --- | --- |
| O=C1CCC(N2Cc3ccc(COC(=O)Nc4cccc(OC(F)(F)F)c4)cc3C2=O)C(=O)N1 (centres unmarked) [Compound 1-5, [2-(2,6-dioxopiperidin-3-yl)-3-oxo-2,3-dihydro-1H-isoindol-5-yl]methyl N-[3-(trifluoromethoxy)phenyl]carbamate] | −0.17 | 7.63 | 7.95 | 11.33 | 2.85 | 4.08 | −2.19 | 6.06 | 5.35 | 12.24 | 1.74 | 3.68 |  |  |
| O=C1CCC(N2Cc3ccc(COC(=O)Nc4ccc(F)c(OC(F)(F)F)c4)cc3C2=O)C(=O)N1 (centres unmarked) [Compound 1-2, [2-(2,6-dioxopiperidin-3-yl)-3-oxo-2,3-dihydro-1H-isoindol-5-yl]methyl N-[4-fluoro-3-(trifluoromethoxy)phenyl]carbamate] | 13.24 | 10.04 | 20.45 | 10.06 | 4.58 | 5.68 | 14.93 | 11.94 | 19.15 | 12.31 | 1.26 | 3.82 | 20.45 |  |
| O=C1CCC(N2Cc3ccc(COC(=O)Nc4ccc(F)c(OC(F)F)c4)cc3C2=O)C(=O)N1 (centres unmarked) [Compound 1-3, [2-(2,6-dioxopiperidin-3-yl)-3-oxo-2,3-dihydro-1H-isoindol-5-yl]methyl N-[3-(difluoromethoxy)-4-fluorophenyl]carbamate] | 13.63 | 8.54 | 30.29 | 15.43 | 6.71 | 6.57 | 17.71 | 10.32 | 25.34 | 13.77 | 5.67 | 4.75 |  | 17.71 |
